{
  "source": "patent US20260193254A1",
  "about": "“2-OXOQUINAZOLINE CRYSTALLINE FORMS” (IDEAYA Biosciences, Inc., priority 2022, published 2026)",
  "assay_type_in_all_cases": "physicochemical",
  "key": {"[1]": {"assay": "Equilibrium solubility in FeSSIF and FaSSIF", "details": "for XRPD of solid after solubility test / final pH / Solubility / impurity in solubility sample: 24 hours; for Solubility / solubility at 24 h: target concentration 1 mg/mL, HPLC method 1 or 2 (footnote); for impurity in solubility sample: no unit printed for impurity (column head mg/mL); for solubility at 24 h: 37 °C, thermodynamic from solid", "experimental": "(§1) Solid part and liquid part were separated by filtration. Solubility was measured by HPLC. Solid part (wet cake) was investigated by XRPD."}, "[2]": {"assay": "Variable humidity and temperature XRPD experiments", "experimental": "Based on DVS and DSC results of Form C, Form C starts to loss water when humidity is below 30% or when temperature is higher than about 44° C. […] In order to determine identity of potential form changes after the dehydration and upon the solid-solid transition, variable humidity and variable temperature XRPD techniques were applied. XRPD patterns of the sample were measured online under 25° C./ambient environment (initial)-120° C./N2 protection-25° C./ambient environment-25° C./80% RH (40 min)-25° C./0% RH (15 h), and 25° C./ambient environment (initial)-250° C./N2 protection-25° C./ambient environment. […] Form L coverts back to Form C after exposure to 25° C./80% RH for 40 min.\nBased on DVS and DSC results of Form D, Form D starts to loss water when humidity is below 10% or when temperature is higher than 46° C. In order to determine identity of the dehydration product, variable humidity and variable temperature XRPD techniques were applied. XRPD patterns of the sample were measured online with a temperature cycle of 25° C./ambient environment (initial)-130° C./N2 protection (10 min)-25° C./N2 protection-25° C./ambient environment (3h) and two water sorption and desorption cycles of 50% RH (initial)-90% RH (3h)-60% RH (2h)-40% RH (2h)-20% RH (3h)-10% RH (3h)-0% RH (6h)-10% RH (3h)-20% RH (3h)-50% RH at 25° C. […] (higher than dehydration temperature). Form S converts back to Form D after exposure to ambient condition for 3 h.\nIn order to investigate potential form change of Form A upon heating, variable temperature XRPD technique was applied. XRPD patterns of the sample were measured online with a temperature cycle of 25° C. (initial)-50° C./N2 protection-70° C./N2 protection-250° C./N2 protection-25° C./N2 protection-25° C./ambient condition (3h). […] Form A converts to Form U when temperature is 250° C., and Form U converts to Form T after cooling to 25° C."}, "[3]": {"assay": "Hygroscopicity: water sorption and desorption by dynamic vapor sorption (DVS)", "details": "for humidity at which water is absorbed again / water content restored (conversion back to the hydrate): DVS and variable humidity XRPD", "experimental": "In some embodiments, the crystalline form described herein is further characterized by is further characterized by a dynamic vapor sorption (DVS) profile. In some embodiments, a DVS is recorded according to the method as described herein with a cycle of 40-0-95-0-40% RH at 25° C.\nWater sorption and desorption behaviors of Form A, Form C, Form D, and Form T were investigated by DVS at 25° C. with a cycle of 40-0-95-0-40% RH. Dm/dt was 0.002. Minimum equilibration time was 60 min. Maximum equilibration time was 360 min. XRPD was measured after DVS test to determine potential form change."}, "[4]": {"assay": "Variable humidity and temperature XRPD experiments", "remark": "listed apart in the source"}, "[5]": {"assay": "Equilibrium solubility in SGF (pH 2.0), 0.1 N HCl (pH 1.2) and phosphate buffer (pH 8.0)", "details": "solid from solubility study with Form A in 0.1 N HCl solution", "experimental": "as §1"}},
  "data": [
    {"compound": "Nc1nc(=O)n(-c2ccccc2Cl)c2nc(C(F)(F)F)ccc12", "note": "[Form F, 4-Amino-1-(2-chlorophenyl)-7-(trifluoromethyl)pyrido[2,3-d]pyrimidin-2(1H)-one]", "values": [
      {"measurement": "XRPD of solid after solubility test", "setting": "[1]; FaSSIF, pH 6.5, 37° C.", "value": "Form F"},
      {"measurement": "final pH", "setting": "[1]; FaSSIF, pH 6.5, 37° C.", "value": 6.6},
      {"measurement": "XRPD of solid after solubility test", "setting": "[1]; FeSSIF, pH 5.0, 37° C.", "value": "Form F"},
      {"measurement": "final pH", "setting": "[1]; FeSSIF, pH 5.0, 37° C.", "value": 5.0},
      {"measurement": "Solubility", "setting": "[1]; FeSSIF, pH 5.0, 37° C.", "value": 240, "unit": "µg/mL"}
    ]},
    {"compound": "Nc1nc(=O)n(-c2ccccc2Cl)c2nc(C(F)(F)F)ccc12", "note": "[Form U, 4-Amino-1-(2-chlorophenyl)-7-(trifluoromethyl)pyrido[2,3-d]pyrimidin-2(1H)-one]", "values": [
      {"measurement": "form after cooling to 25° C.", "setting": "[2]; after heating to 250° C.", "value": "Form T"}
    ]},
    {"compound": "Nc1nc(=O)n(-c2ccccc2Cl)c2nc(C(F)(F)F)ccc12", "note": "[Form C, 4-Amino-1-(2-chlorophenyl)-7-(trifluoromethyl)pyrido[2,3-d]pyrimidin-2(1H)-one]", "values": [
      {"measurement": "humidity below which the form starts to lose water", "setting": "[3]; 25° C.", "value": "below 30 % RH"},
      {"measurement": "form change after the DVS test", "setting": "[3]; XRPD after DVS", "value": "A mixture of Form L and Form C was obtained"},
      {"measurement": "XRPD (XRPD method 2)", "setting": "[2]; VT2 120° C./60% RH (10 min)", "value": "Form L"},
      {"measurement": "XRPD (XRPD method 2)", "setting": "[2]; VT4 25° C./80% RH (40 min)", "value": "Form C"},
      {"measurement": "XRPD (XRPD method 2)", "setting": "[2]; VT6 25° C./60% RH (initial)", "value": "Form C"},
      {"measurement": "temperature above which the form starts to lose water", "setting": "[2]; based on DSC results", "value": "higher than 44 °C"},
      {"measurement": "dehydration product (form obtained on loss of water)", "setting": "[2]; low humidity or heating above the dehydration temperature", "value": "Form L"},
      {"measurement": "XRPD of solid after solubility test", "setting": "[1]; FaSSIF, pH 6.5, 37° C.", "value": "Form C"},
      {"measurement": "final pH", "setting": "[1]; FaSSIF, pH 6.5, 37° C.", "value": 6.6},
      {"measurement": "Solubility", "setting": "[1]; FaSSIF, pH 6.5, 37° C.", "value": 60, "unit": "µg/mL"},
      {"measurement": "impurity in solubility sample", "setting": "[1]; FaSSIF, pH 6.5, 37° C.", "value": "no impurity"},
      {"measurement": "XRPD of solid after solubility test", "setting": "[1]; FeSSIF, pH 5.0, 37° C.", "value": "Form C"},
      {"measurement": "final pH", "setting": "[1]; FeSSIF, pH 5.0, 37° C.", "value": 5.2},
      {"measurement": "Solubility", "setting": "[1]; FeSSIF, pH 5.0, 37° C.", "value": 170, "unit": "µg/mL"},
      {"measurement": "impurity in solubility sample", "setting": "[1]; FeSSIF, pH 5.0, 37° C.", "value": "no impurity"},
      {"measurement": "XRPD (XRPD method 2)", "setting": "[4]; VT1 25° C./60% RH (initial)", "value": "Form C"},
      {"measurement": "XRPD (XRPD method 2)", "setting": "[4]; VT7 250° C./60% RH (10 min)", "value": "Solid state Form V"},
      {"measurement": "XRPD (XRPD method 2)", "setting": "[4]; VT8 25° C./60% RH (final)", "value": "Solid state Form V"}
    ]},
    {"compound": "Nc1nc(=O)n(-c2ccccc2Cl)c2nc(C(F)(F)F)ccc12", "note": "[Form S, 4-Amino-1-(2-chlorophenyl)-7-(trifluoromethyl)pyrido[2,3-d]pyrimidin-2(1H)-one]", "values": [
      {"measurement": "humidity at which water is absorbed again / water content restored (conversion back to the hydrate)", "setting": "[3]; 25° C.", "value": "higher than 20 % RH"},
      {"measurement": "form after exposure to ambient condition for 3 h", "setting": "[2]; XRPD, 25° C.", "value": "Form D"}
    ]},
    {"compound": "Nc1nc(=O)n(-c2ccccc2Cl)c2nc(C(F)(F)F)ccc12", "note": "[Form L, 4-Amino-1-(2-chlorophenyl)-7-(trifluoromethyl)pyrido[2,3-d]pyrimidin-2(1H)-one]", "values": [
      {"measurement": "humidity at which water is absorbed again / water content restored (conversion back to the hydrate)", "setting": "[3]; 25° C.", "value": "≥ 80", "unit": "% RH"},
      {"measurement": "form after exposure to 25° C./80% RH for 40 min", "setting": "[2]; variable humidity XRPD", "value": "Form C"},
      {"measurement": "form obtained on heating to 250° C.", "setting": "[2]; variable temperature XRPD, N2 protection", "value": "solid state Form V"}
    ]},
    {"compound": "Nc1nc(=O)n(-c2ccccc2Cl)c2nc(C(F)(F)F)ccc12", "note": "[Form E, 4-Amino-1-(2-chlorophenyl)-7-(trifluoromethyl)pyrido[2,3-d]pyrimidin-2(1H)-one]", "values": [
      {"measurement": "solubility at 24 h", "setting": "[1]; pH 5, fessif, FeSSIF, pH 5.0, 37° C.", "value": 140, "unit": "µg/mL"},
      {"measurement": "solubility at 24 h", "setting": "[1]; pH 6.5, fassif, FaSSIF, pH 6.5, 37° C.", "value": 60, "unit": "µg/mL"},
      {"measurement": "XRPD of solid after solubility test", "setting": "[1]; FaSSIF, pH 6.5, 37° C.", "value": "Form E"},
      {"measurement": "final pH", "setting": "[1]; FaSSIF, pH 6.5, 37° C.", "value": 6.6},
      {"measurement": "XRPD of solid after solubility test", "setting": "[1]; FeSSIF, pH 5.0, 37° C.", "value": "Form E"},
      {"measurement": "final pH", "setting": "[1]; FeSSIF, pH 5.0, 37° C.", "value": 5.2}
    ]},
    {"compound": "Nc1nc(=O)n(-c2ccccc2Cl)c2nc(C(F)(F)F)ccc12", "note": "[Form R, 4-Amino-1-(2-chlorophenyl)-7-(trifluoromethyl)pyrido[2,3-d]pyrimidin-2(1H)-one]", "values": [
      {"measurement": "impurity from HPLC result", "setting": "[5]", "value": "about 68.5%"}
    ]}
  ]
}
